“Also recorded” adds a separate entry of the source. Marks after values point to notes of the source that are not given here.

For test [1], the system named is C57BLKS/J db/db mice. Nature of the test: Oral glucose tolerance test and fasted state glucose in db/db mice after 4 weeks. In kind it is in vivo. The following applies: for Fasted state glucose: blood, overnight fasting, before glucose load. As to the method: (§1) This model of late type 2 diabetes with severe hyperglycemia and obesity is widely used to determine the efficacy of anti-diabetic and anti-obesity compounds.
(§2) Male db/db mice were obtained from Jackson Laboratory (Bar Harbor, Me., USA). Adult mice aged 8 weeks were used in the experiment. Mice were housed individually in plastic cages with bedding and allowed free access to standard rodent food and tap water. The animal rooms were controlled for temperature (24° C.), humidity (55%), and light (12-h light-dark cycle). The animals were randomized into four groups. […] Body weight and food intake were determined over the course of the study. Total adipose tissue weight was determined by NMR. After four weeks of treatment an oral glucose tolerance test was carried out after an overnight fasting period. The blood glucose levels were measured before (fasted state glucose levels) application of an oral glucose load (1 g/kg body weight) and after 15, 30, 45, 60, 90, 120, 150 and 180 minutes. Area under the curve (AUC) was calculated from the resulting blood glucose curves and served as an indicator of glucose tolerance. At the end of the study, fed state levels of glucose, triglycerides and free fatty acids were determined in plasma. All data are expressed as means for animals in each group.

In test [2] the test system is C57BLKS/J db/db mice. Nature of the test: Fed state plasma glucose, triglycerides and free fatty acids in db/db mice at end of study. It is filed as in vivo. The settings on record: 4 weeks. As for the experimental part: as §1, §2
For test [3], the system named is C57BLKS/J db/db mice. Put plainly: Body weight, adipose tissue weight and food intake in the 4-week db/db mouse study. In kind it is in vivo. The following applies: for Total adipose tissue weight / Body weight: 4 weeks feed-ad-mix, 1% EGCG and/or 0.038% rosiglitazone in diet, group means; for Total adipose tissue weight: by NMR; for Body weight: * vs control, # vs rosiglitazone (P<0.05). As for the experimental part:
as §1, §2

In test [4] the test system is C3H10T1/2. Put plainly: Adipocyte differentiation of C3H10T1/2 cells, oil red O staining. It is filed as cell-based. The settings on record: for Optical Density: extracted oil red O stain after 11-day treatment, insulin 100 nM.
Source text: After the 11-day treatment, the cells were stained with oil red O. This was followed by extraction of the stain for concentration determination.
Setting [5] is: 1% EGCG and/or 0.038% rosiglitazone in diet.
Setting [6] is: fed state plasma, 1% EGCG and/or 0.038% rosiglitazone in diet.

For `CN(CCOc1ccc(CC2SC(=O)NC2=O)cc1)c1ccccn1` (stereo not shown) [Rosiglitazone, rosiglitazone, reference compound], the Fasted state glucose in test [1] (setting [5]) was 98.0* mg/dl. Besides, in test [2] (setting [6]), the Free fatty acids is reported as 25.2* mmol/l, the Glucose was 22.1* mmol/l and the Triglycerides is listed as 1.01* mmol/l. For the same compound, in test [3], the “Total adipose tissue weight” value is 29.0* g and the Body weight is 50.0* g.

Consider (−)-epigallocatechin gallate [EGCG], for which the Fasted state glucose in test [1] (setting [5]) is listed as 132.1* mg/dl. In addition, in test [1] (1% EGCG and/or 0.038% rosiglitazone in diet, oral glucose load 1 g/kg, blood glucose curve 0-180 minutes), the AUC is listed as 38353.5*. For the same compound, in test [1] (AUC of oral glucose tolerance test), the “Glucose tolerance (result in words)” value is given as “significantly improved”. The “Fasted state glucose levels (result in words)” value in test [1] (compared to control mice) is on record as “significantly reduced”. Also, in test [4] (C3H10T1/2 cells, 11-day treatment, oil Red O staining), the “Adipocyte differentiation (result in words)” value is given as “blocked TZD-induced adipocyte differentiation; also recorded: blocked ligustilide-induced adipocyte differentiation”. In addition, the “Fed state plasma levels of glucose, triglycerides, and free fatty acids (result in words)” value in test [2] is on record as “significantly reduced”. In test [2] (setting [6]), the Glucose was 33.5*# mmol/l and the Triglycerides was 1.47* mmol/l. Also, in test [3], the “Total adipose tissue weight” value is on record as 20.9*# g and the Body weight was 38.8*# g. The “Body weight and adipose tissue weight (result in words)” value in test [3] (4 weeks, compared to control mice) is “moderately decreased”.

For the compound “Insulin: insulin, 100 nM, used alone as comparison in the adipocyte differentiation test [reference compound]”, the “Optical Density” value worked out at 0.21 ± 0.02 in test [4] (Table 1, rosiglitazone 1 × 10^−5 M, pioglitazone 2.5 × 10^−5 M, EGCG 5 × 10^−5 M) and 0.14 ± 0.01 in test [4] (Table 2, ligustilide 50 × 10^−5 M, no EGCG).
